{
  "source": "patent US10385080B2",
  "about": "“STAT6 inhibitors” (Board of Regents, The University of Texas System, priority 2013, dated 2019)",
  "key": {"[1]": {"assay": "Toxicity: weights of mice during challenge with different doses", "type": "in vivo", "settings": "highest dose of 50 micrograms", "method": "(§1) The issue of toxicity was addressed with the newer synthetic STAT6 peptidomimetic agents 86i and 43i in two ways. First, the inventors determined the effect of each inhibitor on asthma-related parameters in fungus-challenged mice. […] Second, the weights of mice were measured during challenge with the different doses of both STAT6 inhibitors."}, "allergic airway disease": {"test_system": "allergic airway disease", "assay": "Allergic lung disease reversal model (A. niger spores, treatment of established disease)", "type": "in vivo, mice", "method": "FIG. 17A, Mice are treated intranasally with 400,000 Aspergillus niger conidia every other day. After two weeks A. niger conidia are administered with either DLPC or DLPC/PM-43I. Airway hyperresponsiveness is measured at week 2, 3, and 4. FIG. 17B, Airway hyperrepsonsiveness induced by acetylcholine is revered by treatment with PM-43I.\nIn separate experiments wild type C57BL/6 mice were challenged with the spores of A. niger for two weeks after which the inventors began to give PM-242H intranasally at 50 micrograms per dose at the time of continued fungal challenge for an additional two weeks (FIG. 13A).\n(§2) Mice were challenged intranasally with a clinical isolate of 4×10^5 A. niger conidia every two days for a total of 8 challenges and treated with 50 μg of the indicated β-agonist, liposome vehicle (DLPC) and/or PM-242H (5 or 50 μg) intranasally as indicated and the allergic airway disease phenotype was determined according to previously described methods (Porter, P. et al. 2009).\n(§3) Allergic airway disease was assessed as previously described (Porter, P. et al. 2009). Changes in respiratory system resistance (RRS) in response to intravenous acetylcholine challenge, bronchoalveolar lavage (BAL) fluid differential counts, and analysis of lung IL-4, IL-17A and IFN-γ producing cells by enzyme linked immunocell spot assay (ELISpot) were performed as previously described (Lee, S. H. et al. 2003; Polikepahad, S. et al. 2010).\nLungs were perfused of blood by cannulating the pulmonary artery and injecting ice cold PBS until lavage returning via the left atrium was clear. Lungs were then inflated via the trachea with 10% formalin at 25 cm water pressure and the tracheas were tied off prior to removal of the cardiopulmonary unit en bloc submerging in 10% formalin overnight. Fixed lungs were then divided into individual lobes that were then halved and embedded in paraffin. Lung sections were cut at 5 microns and stained with the periodic acid-Schiff (PAS) kit (395B; Sigma-Aldrich, St. Louis, Mo.)."}, "[2]": {"test_system": "asthma-related parameters", "assay": "Dose effect on asthma-related parameters in fungus-challenged mice", "type": "in vivo", "settings": "fungus-challenged mice", "method": "as §1, §2, §3"}, "STAT6 [3]": {"target": "T1, STAT6 (Homo sapiens, UniProt P42226)", "T1 sequence (P42226 1-847)": "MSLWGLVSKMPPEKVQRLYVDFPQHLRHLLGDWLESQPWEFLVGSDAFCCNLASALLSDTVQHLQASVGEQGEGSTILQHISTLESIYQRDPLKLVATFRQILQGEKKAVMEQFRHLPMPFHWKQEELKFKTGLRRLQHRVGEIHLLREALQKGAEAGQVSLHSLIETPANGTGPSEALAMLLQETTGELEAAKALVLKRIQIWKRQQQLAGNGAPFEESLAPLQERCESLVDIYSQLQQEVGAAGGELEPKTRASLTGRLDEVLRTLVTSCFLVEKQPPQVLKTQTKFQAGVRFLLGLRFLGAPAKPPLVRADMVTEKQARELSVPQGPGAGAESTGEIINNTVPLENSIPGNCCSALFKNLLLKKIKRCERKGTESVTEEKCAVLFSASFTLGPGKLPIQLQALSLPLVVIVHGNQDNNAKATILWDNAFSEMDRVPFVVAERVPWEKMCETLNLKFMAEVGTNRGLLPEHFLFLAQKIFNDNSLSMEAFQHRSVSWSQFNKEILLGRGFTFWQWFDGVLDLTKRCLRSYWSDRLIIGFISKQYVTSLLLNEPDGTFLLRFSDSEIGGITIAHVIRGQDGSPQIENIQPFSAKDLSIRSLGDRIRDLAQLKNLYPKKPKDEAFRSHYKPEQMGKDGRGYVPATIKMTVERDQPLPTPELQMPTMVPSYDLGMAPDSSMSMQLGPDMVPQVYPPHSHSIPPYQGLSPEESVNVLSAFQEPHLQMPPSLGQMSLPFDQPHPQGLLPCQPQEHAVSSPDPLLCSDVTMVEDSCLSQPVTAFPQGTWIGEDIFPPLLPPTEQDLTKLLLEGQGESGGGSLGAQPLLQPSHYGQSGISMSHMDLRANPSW", "assay": "Inhibition of IL-4 (and IL-13) stimulated phosphorylation of STAT6 in Beas-2B cells, western blot", "type": "cell-based", "set-up": "endogenous in cells; host or cells: Beas-2B immortalized human airway cells", "settings": "dose response", "method": "Compound PM-241H inhibited the phosphorylation of Tyr641 of STAT6 in Beas-2B cells stimulated with IL-4 and IL-13.\n(§4) Compounds were screened at 5 μM for their ability to inhibit IL-4 stimulated phosphorylation of STAT6 in Beas-2B immortalized human airway cells. Cells were treated with prodrug for 2 hr and then stimulated with IL-4. After 30 min cells were lysed and pSTAT6 and total STAT6 were measured with western blots (FIG. 7). Without being bound by theory, the inhibition observed is consistent with compounds entering cells, being stripped of the POM groups, binding to the SH2 domain of STAT6, blocking binding to IL-4Rα and preventing phosphorylation of Tyr641. […] Compounds resulting in <10% residual phosphorylation were taken on to MTS cytotoxicity assays and dose response assays. (FIG. 8). The cyclic aromatic amides PM-63I, PM-80I, PM-81I, and PM-86I were very potent with IC50 values from 50-500 nM. […] With the exception of PM-43I, concentrations that inhibit STAT6 phosphorylation are 20-100 fold lower than those resulting in toxicity. STAT6 inhibitors were assayed for their ability to inhibit the phosphorylation of STAT 1, STAT 3, STAT 5, Akt, and FAK, all processes that depend on SH2 domain-phosphotyrosine interactions (Mandal, P. K. et al. 2011). Serum starved MDA-MB-468 breast cancer cells were treated with STAT6 inhibitors for 2 hr and then were stimulated with EGF (See FIGS. 9A and 9B).\n(§5) Cells or lungs were isolated and lysed in RIPA buffer (9806S; Cell Signaling, Danvers, Mass.), protein was quantified using BCA Protein Assay Reagent (23227; Thermo Fisher Scientific, Rockford, Ill.) and denatured in Laemmli sample buffer (161-0737; Bio-Rad, Hercules, Calif.) according to manufacturer's protocol. Proteins were separated on SDS-Page gels were hand-poured using a standard electrophoresis unit (Bio-Rad, Hecules, Calif.) and transferred to a membrane using iBlot Gel Transfer Device (IB 1001; Invitrogen, Grand Island, N.Y.). Membranes were blocked in 2% FBS PBST and probed for c-Src, p-c-Src, pErk1/2, Erk1/2, p STAT6, STAT6, pSTAT3, STAT3, pSTAT5, STAT5, Shp-1, and β-actin. Signal was detected with a ChemiDoc XRS+ system (BioRad; Hercules, Calif.)."}, "Stat5": {"test_system": "Stat5", "assay": "Selectivity: Stat5 phosphorylation in EGF-stimulated MDA-MB-468 cells", "type": "cell-based", "settings": "serum starved MDA-MB-468 cells, 2 hr", "method": "as §4"}, "allergic lung disease": {"test_system": "allergic lung disease", "assay": "Allergic lung disease induction model (ovalbumin/alum immunization, ovalbumin and A. niger challenge)", "type": "in vivo, mice", "method": "The same model as described in part E was used to determine the effect of PH-242H on the induction of allergic lung disease. Mice that were immunized with ovalbumin and challenged intranasally with ovalbumin and A. niger spores developed AHR as determined by a shift to the left of the acetylcholine (Ach) dose response curve as compared to PBS challenged animals. Enzyme linked immunocell spot (ELISpot) assays were then performed on whole lung homogenates, assaying for IL-4, gamma interferon (IFN-γ) and IL-17A-secreting cells.\n(§6) Mice were sensitized to ovalbumin precipitated in alum as described in FIG. 3 (Corry, D. B. et al. 1996). In brief, mice were vaccinated intraperitoneally weekly with ovalbumin/alum together with PM-242H (50 or 250 μg) or liposome vehicle (DLPC) for 2 consecutive weeks and allowed to rest for 1 week. Mice were then intranasally challenged with ovalbumin (1 mg/mL in PBS; A5503, Sigma-Aldrich) and 4×10^5A. niger conidia for 5 consecutive days after which the allergic airway disease phenotype was assessed. Randomization was not used to assign mice to specific treatment groups. Investigators were blind as to mouse genotype and treatment during data collection.\nas §3"}, "Th1, Th2, Th17 cells": {"test_system": "Th1, Th2, Th17 cells", "assay": "Th cell development: ovalbumin restimulation ELISpot of splenocytes from ovalbumin/alum immunized mice", "type": "in vivo", "method": "The ability of PM-242H to inhibit the development of major T helper effector subsets (Th1, Th2, Th17 cells) at the time of allergen exposure was tested. For these experiments, mice were immunized with chicken egg ovalbumin precipitated in alum over two weeks and then challenged intranasally with the spores of the fungus Aspergillus niger (AN) together with alum-free ovalbumin. The inventors prepared single cell suspensions of splenocytes from these same mice and stimulated the T cells in these preparations with ovalbumin to determine the precise number of antigen-specific Th1, Th2 and Th17 cells that developed. […] In summary, treatment of mice with PM-242H suppressed the development of Th2 and Th17, but not Th1 cells. These findings are entirely consistent with the known properties of STAT6, but in addition indicate that STAT6 may be involved with the production of Th17 cells.\nas §6\nSplenocytes from the indicated challenge groups of naïve and sensitized mice were assessed for antigen-specific recall cytokine responses by ELISpot. In brief, spleens were removed post mortem, de-aggregated by pressing through 40 μm nylon mesh and the red blood cells were removed from resulting cell suspension by hypotonic lysis. The splenocytes were then washed twice and cultured in flat-bottom wells of 96-well microtiter plates that were pre-coated with capture antibodies to IL-4, interferon gamma (IFN-γ) and IL-17A. Splenocytes were added in duplicate cultures of 0.5×10^6 cells/well that were then diluted serially two-fold to 0.015×10^6 cells/well. Cells were cultured in the presence of media or whole ovalbumin (1 mg/mL) overnight and plates were developed as previously described (Kheradmand, F. et al. 2002)."}, "STAT6 [4]": {"test_system": "STAT6", "assay": "STAT6 phosphorylation in vitro and in vivo (summary statement)", "from_the_text": "The synthesized PM-242H compound was advanced to in vivo studies. PM-242H was formulated as simple dilauroylphosphatidyl-choline liposomes and applied by intranasal administration. […] These findings with PM-242H in vivo and in vitro are entirely consistent with and explained by its ability to inhibit selectively STAT6.\nas §5"}, "[5]": {"settings": "A. niger conidia, DLPC/PM-43I after two weeks"}, "[6]": {"settings": "intranasal 50 micrograms per dose during established disease"}, "[7]": {"settings": "ELISpot on whole lung homogenates"}, "[8]": {"settings": "splenocytes restimulated with ovalbumin"}},
  "note": "Entries after “also recorded” stand apart in the source; their conditions may differ.",
  "data": [
    {"smiles": "CC(=CC(=O)NC1CCCCN(CC(=O)N(C)c2ccccc2)C1=O)c1ccc(C(F)(F)P(=O)(OCOC(=O)C(C)(C)C)OCOC(=O)C(C)(C)C)cc1", "note": "(stereo not shown) [PM-43I]", "values": [
      {"measurement": "weight gain", "setting": "[1]", "result": "reduction in weight gain"},
      {"measurement": "established allergic airway disease", "setting": "allergic airway disease; A. niger conidia every other day, DLPC/PM-43I after two weeks", "result": "reverses established allergic airway disease"},
      {"measurement": "immune cell recruitment", "setting": "allergic airway disease; [5]", "result": "does not significantly affect"},
      {"measurement": "lung immune response to A. niger infection", "setting": "allergic airway disease; [5]", "result": "does in inhibit"},
      {"measurement": "airway hyperresponsiveness induced by acetylcholine", "setting": "allergic airway disease; A. niger conidia, DLPC/PM-43I after two weeks, weeks 2, 3, 4", "result": "revered"},
      {"measurement": "maximally effective dose", "setting": "[2]", "result": 0.5, "unit": "micrograms"},
      {"measurement": "IC50", "setting": "STAT6 [3]", "result": "1000 to 2500", "unit": "nM"},
      {"measurement": "cross reactivity with Stat5", "setting": "Stat5", "result": "significant cross reactivity"}
    ]},
    {"smiles": "CC(C)(C)C(=O)OCOP(=O)(OCOC(=O)C(C)(C)C)C(F)(F)c1ccc(/C=C/C(=O)NC(C(=O)N2CCCC2C(=O)N(c2ccccc2)c2ccc(-c3ccccc3)cc2)C(C)(C)C)cc1", "note": "(stereo not shown) [PM-242H]", "values": [
      {"measurement": "airway hyperresponsiveness", "setting": "allergic airway disease; C57BL/6 mice, intranasal 50 micrograms per dose during established disease", "result": "abrogation of airway hyperresponsiveness; also recorded: promotes recovery from airway hyperresponsiveness"},
      {"measurement": "mucus production", "setting": "allergic airway disease; FIGS. 13A-F legend", "result": "inhibition of mucus production"},
      {"measurement": "goblet cell metaplasia (periodic acid-Schiff staining)", "setting": "allergic airway disease; [6]", "result": "reduction in goblet cell metaplasia"},
      {"measurement": "lung and airway inflammation", "setting": "allergic airway disease; [6]", "result": "did not, however, attenuate"},
      {"measurement": "number of airway eosinophils", "setting": "allergic airway disease; [6]", "result": "increased"},
      {"measurement": "number of lung IL-17A-secreting cells", "setting": "allergic airway disease; [6]", "result": "increased"},
      {"measurement": "IL-17A-secreting cells in lungs", "setting": "allergic lung disease; [7]", "result": "significantly suppressed"},
      {"measurement": "ratio between IL-4 and IFN-γ-secreting cells in lungs", "setting": "allergic lung disease; [7]", "result": "significantly suppressed"},
      {"measurement": "development of allergic lung disease", "setting": "allergic lung disease; FIG. 12 legend", "result": "blocks the development of allergic lung disease"},
      {"measurement": "effect on Th cells", "setting": "Th1, Th2, Th17 cells; FIGS. 11A-H legend", "result": "inhibits Th cells"},
      {"measurement": "Th1 (IFN-γ)-secreting cells", "setting": "Th1, Th2, Th17 cells; [8]", "result": "unaffected"},
      {"measurement": "development of Th2 (IL-4-producing) T cells", "setting": "Th1, Th2, Th17 cells; [8]", "result": "failed to develop"},
      {"measurement": "development of Th17 (IL-17A-producing) T cells", "setting": "Th1, Th2, Th17 cells; [8]", "result": "failed to develop"},
      {"measurement": "STAT6 phosphorylation both in vitro and in vivo", "setting": "STAT6 [4]", "result": "inhibit"}
    ]}
  ]
}
